Measurements from ChEMBL document CHEMBL5321280, “Novel 4-Arylindolines Containing a Pyrido[3,2-d]pyrimidine Moiety as the Programmed Cell Death-1/Programmed Cell Death-Ligand 1 Interaction Inhibitors for Tumor Immunotherapy” (J Med Chem, 2023).
The source made the active and inactive calls. No cut-off for these calls is given here.

Experiments:
T-cell [1] = test: Immunomodulatory activity in concanavalin A stimulated BALB/c mouse T-lymphocyte co-cultured with mouse CT26 cells assessed as increase in T cell proliferation at 5 to 80 nM incubated for 48 hrs by flow cytometry; type: functional, cell-based; settings: dose 5-80 nM
[2] = target: Programmed cell death protein 1/Programmed cell death 1 ligand 1 (Homo sapiens, UniProt Q15116+Q9NZQ7); test: Inhibition of PD-1/PD-L1 (unknown origin) protein-protein interaction incubated for 105 mins by HTRF assay; type: protein-complex assay
Programmed cell death protein 1/Programmed cell death 1 ligand 1, sequence (Q15116 whole entry): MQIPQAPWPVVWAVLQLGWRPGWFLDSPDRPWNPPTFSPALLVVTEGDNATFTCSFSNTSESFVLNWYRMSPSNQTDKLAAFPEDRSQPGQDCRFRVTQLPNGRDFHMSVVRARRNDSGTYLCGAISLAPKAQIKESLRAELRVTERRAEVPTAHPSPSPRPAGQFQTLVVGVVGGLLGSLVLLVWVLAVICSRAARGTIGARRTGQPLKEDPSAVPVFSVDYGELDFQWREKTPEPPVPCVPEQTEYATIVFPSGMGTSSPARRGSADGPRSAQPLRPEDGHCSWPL
Programmed cell death protein 1/Programmed cell death 1 ligand 1, sequence (Q9NZQ7 whole entry): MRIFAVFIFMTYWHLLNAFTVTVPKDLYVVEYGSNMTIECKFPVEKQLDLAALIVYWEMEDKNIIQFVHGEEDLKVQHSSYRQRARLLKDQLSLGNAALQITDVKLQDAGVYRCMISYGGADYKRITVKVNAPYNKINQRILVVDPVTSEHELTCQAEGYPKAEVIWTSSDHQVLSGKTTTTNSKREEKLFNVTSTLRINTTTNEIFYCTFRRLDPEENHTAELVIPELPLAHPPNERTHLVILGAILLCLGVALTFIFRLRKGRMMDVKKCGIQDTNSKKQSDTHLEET

T-cell [3] = test: Immunomodulatory activity in concanavalin A stimulated BALB/c mouse T-lymphocyte co-cultured with mouse CT26 cells overexpressing PD-L1 assessed as T cell proliferation at 20 nM incubated for 48 hrs by flow cytometry (reference value: 58.47 +/- 2.07%); type: functional
T-cell [4] = test: Immunomodulatory activity in concanavalin A stimulated BALB/c mouse T-lymphocyte co-cultured with mouse CT26 cells overexpressing PD-L1 assessed as increase in T cell proliferation at 5 to 80 nM incubated for 48 hrs by flow cytometry; type: functional, cell-based; settings: dose 5-80 nM
T-cell [5] = test: Immunomodulatory activity in concanavalin A stimulated BALB/c mouse T-lymphocyte co-cultured with mouse CT26 cells assessed as T cell proliferation at 20 nM incubated for 48 hrs by flow cytometry (reference value: 64.08 +/- 0.91%); type: functional
[6] = Metabolic stability in human liver microsomes assessed as half life; type: ADME, Microsome
T-cell [7] = test: Immunomodulatory activity in concanavalin A stimulated BALB/c mouse T-lymphocyte co-cultured with mouse CT26 cells overexpressing PD-L1 assessed as increase in proportion of CD3 positive CD8 positive T cells at 20 nM incubated for 48 hrs by flow cytometry (reference value: 15.01%); type: functional
T-cell [8] = test: Immunomodulatory activity in concanavalin A stimulated BALB/c mouse T-lymphocyte co-cultured with mouse CT26 cells overexpressing PD-L1 assessed as increase in proportion of CD3 positive CD69 positive T cells at 20 nM incubated for 48 hrs by flow cytometry (reference value: 39.97%); type: functional
T-cell [9] = test: Immunomodulatory activity in concanavalin A stimulated BALB/c mouse T-lymphocyte co-cultured with mouse CT26 cells overexpressing PD-L1 assessed as increase in proportion of CD3 positive CD8 positive T cells at 80 nM incubated for 48 hrs by flow cytometry (reference value: 14.38%); type: functional
T-cell [10] = test: Immunomodulatory activity in concanavalin A stimulated BALB/c mouse T-lymphocyte co-cultured with mouse CT26 cells overexpressing PD-L1 assessed as increase in proportion of CD3 positive CD69 positive T cells at 80 nM incubated for 48 hrs by flow cytometry (reference value: 41.22%); type: functional

Row | Compound | Activity (T-cell [1]) | IC50 [2] | Activity (T-cell [3]) | Activity (T-cell [4]) | Activity (T-cell [5]) | also measured
1 | OCCNCc1cnc2c(N3CCc4c(-c5ccc6c(c5)OCCO6)cccc43)ncnc2c1 | Active | 7.2 nM | 59.54% | Active | 61.77% | 
2 | CC(C)(CO)NCc1cnc2c(N3CCc4c(-c5ccccc5)cccc43)nccc2c1 |  | 44.4 nM |  |  |  | 
3 | CC(=O)NCCNCc1cnc2c(N3CCc4c(-c5ccc6c(c5)OCCO6)cccc43)ncnc2c1 |  | 13.8 nM |  |  |  | 
4 | O=C(O)[C@@H]1CCCN1Cc1cnc2c(N3CCc4c(-c5ccccc5)cccc43)ncnc2c1 | Active | 8.1 nM | 61.9% | Active | 64.03% | 
5 | O[C@@H]1CCN(Cc2cnc3c(N4CCc5c(-c6ccccc6)cccc54)ncnc3c2)C1 |  | 13.2 nM |  |  |  | 
6 | OCCNCc1cnc2c(N3CCc4c(-c5ccccc5)cccc43)nccc2c1 |  | 31.7 nM |  |  |  | 
7 | O=C(c1ncc(CNC2CCOCC2)s1)N1CCc2c(-c3ccc4c(c3)OCCO4)cccc21 | Active | 18.9 nM | 60.49% | Active | 59.1% | half-life [6]: 0.373 h
8 | NS(=O)(=O)NCCNCc1cnc2c(N3CCc4c(-c5ccccc5)cccc43)ncnc2c1 |  | 21.1 nM |  |  |  | 
9 | c1ccc(-c2cccc3c2CCN3c2ncnc3cc(CNC4CCOCC4)ccc23)cc1 |  | 108 nM |  |  |  | 
10 | O=C(O)[C@@H]1CCN(Cc2cnc3c(N4CCc5c(-c6ccccc6)cccc54)nccc3c2)C1 |  | 67.9 nM |  |  |  | 
11 | O=C(O)[C@@H]1CCN(Cc2cnc3c(N4CCc5c(-c6ccccc6)cccc54)ncnc3c2)C1 | Active | 8.6 nM | 38.74% | Active | 43.98% | 
12 | O=C(O)[C@@H]1CCCCN1Cc1cnc2c(N3CCc4c(-c5ccccc5)cccc43)ncnc2c1 |  | 26.6 nM |  |  |  | 
13 | O=C(O)[C@H]1CCN(Cc2cnc3c(N4CCc5c(-c6ccccc6)cccc54)nccc3c2)C1 |  | 80.5 nM |  |  |  | 
14 | O=C(O)[C@@H]1CCCN1Cc1cnc2c(N3CCc4c(-c5ccc6c(c5)OCCO6)cccc43)ncnc2c1 |  | 15.8 nM |  |  |  | 
15 | CC(=O)NCCNCc1cnc2c(N3CCc4c(-c5ccccc5)cccc43)ncnc2c1 | Active | 3.9 nM | 55.7% | Active | 51.57% | Activity (T-cell [7]): 18.56%; half-life [6]: 1.85 h; Activity (T-cell [8]): 43.99%; Activity (T-cell [9]): 22.16%; Activity (T-cell [10]): 45.07%
16 | COCCNCc1cnc2c(N3CCc4c(-c5ccc6c(c5)OCCO6)cccc43)ncnc2c1 |  | 15.5 nM |  |  |  | 
